Measured values published in ChEMBL document CHEMBL1124865, “Synthesis and biological evaluation of a series of parenteral 3'-quaternary ammonium cephalosporins” (J Med Chem, 1990).
In brackets after ≈: the same amount, converted by molar mass.

Tests used:
Format in all cases: functional
Klebsiella pneumoniae [1] = test: microbe, parasite or virus in culture; conditions: Klebsiella pneumoniae; read-out: MIC
Description: Antibacterial activity against Klebsiella pneumoniae 1082E

Streptococcus pyogenes = test: Antibacterial activity against Streptococcus pyogenes; conditions: Streptococcus pyogenes; read-out: MIC
Streptococcus pneumoniae = test: Antibacterial activity against Streptococcus pneumoniae; conditions: Streptococcus pneumoniae; read-out: MIC
Staphylococcus aureus [2] = test: Antibacterial activity against penicillin G resistance Staphylococcus aureus; conditions: Staphylococcus aureus; read-out: MIC
Escherichia coli [3] = test: Antibacterial activity against Escherichia coli EC14; conditions: Escherichia coli; read-out: MIC
Escherichia coli [4] = test: Antibacterial activity against Escherichia coli TEM; conditions: Escherichia coli; read-out: MIC
Enterococcus faecium = test: Antibacterial activity against Enterococcus faecium; conditions: Enterococcus faecium; read-out: MIC
Enterobacter cloacae [5] = test: Antibacterial activity against Enterobacter cloacae EB5; conditions: Enterobacter cloacae; read-out: MIC
Serratia marcescens = test: Antibacterial activity against Serratia marcescens SE3; conditions: Serratia marcescens; read-out: MIC
Pseudomonas aeruginosa [6] = test: Antibacterial activity against Pseudomonas aeruginosa PS18; conditions: Pseudomonas aeruginosa; read-out: MIC
Staphylococcus aureus [7] = test: Antibacterial activity against penicillin G susceptible Staphylococcus aureus; conditions: Staphylococcus aureus; read-out: MIC
Pseudomonas aeruginosa [8] = test: Antibacterial activity against Pseudomonas aeruginosa X528; conditions: Pseudomonas aeruginosa; read-out: MIC
Enterobacter cloacae [9] = test: Antibacterial activity against Enterobacter cloacae 265A; conditions: Enterobacter cloacae; read-out: MIC
Klebsiella pneumoniae [10] = test: Antibacterial activity against Klebsiella pneumoniae X26; conditions: Klebsiella pneumoniae; read-out: MIC

CO/N=C(\C(=O)N[C@@H]1C(=O)N2C(C(=O)[O-])=C(C[n+]3ccc4ccoc4c3)CS[C@H]12)c1csc(N)n1
MIC (Klebsiella pneumoniae [1]): 4 µg/mL (≈ 7.77 µM)
MIC (Streptococcus pyogenes): < 0.008 µg/mL
MIC (Streptococcus pneumoniae): 0.015 µg/mL (≈ 0.0292 µM)
MIC (Staphylococcus aureus [2]): 8 µg/mL (≈ 15.5 µM)
MIC (Escherichia coli [3]): 0.015 µg/mL (≈ 0.0292 µM)
MIC (Escherichia coli [4]): 0.015 µg/mL (≈ 0.0292 µM)
MIC (Enterococcus faecium): > 128 µg/mL
MIC (Enterobacter cloacae [5]): 0.06 µg/mL (≈ 0.117 µM)
MIC (Serratia marcescens): 0.03 µg/mL (≈ 0.0583 µM)
MIC (Pseudomonas aeruginosa [6]): 8 µg/mL (≈ 15.5 µM)
MIC (Staphylococcus aureus [7]): 1 µg/mL (≈ 1.94 µM)
MIC (Pseudomonas aeruginosa [8]): 2 µg/mL (≈ 3.89 µM)
MIC (Enterobacter cloacae [9]): 8 µg/mL (≈ 15.5 µM)
MIC (Klebsiella pneumoniae [10]): 0.015 µg/mL (≈ 0.0292 µM)

CO/N=C(\C(=O)N[C@@H]1C(=O)N2C(C(=O)[O-])=C(C[n+]3csc(CCOC=O)c3C)CS[C@H]12)c1csc(N)n1
MIC (Klebsiella pneumoniae [1]): 4 µg/mL (≈ 7.06 µM)
MIC (Streptococcus pyogenes): 0.015 µg/mL (≈ 0.0265 µM)
MIC (Streptococcus pneumoniae): 0.015 µg/mL (≈ 0.0265 µM)
MIC (Staphylococcus aureus [2]): 2 µg/mL (≈ 3.53 µM)
MIC (Escherichia coli [3]): 0.03 µg/mL (≈ 0.0529 µM)
MIC (Escherichia coli [4]): 0.03 µg/mL (≈ 0.0529 µM)
MIC (Enterococcus faecium): 16 µg/mL (≈ 28.2 µM)
MIC (Enterobacter cloacae [5]): 0.06 µg/mL (≈ 0.106 µM)
MIC (Serratia marcescens): 0.06 µg/mL (≈ 0.106 µM)
MIC (Pseudomonas aeruginosa [6]): 16 µg/mL (≈ 28.2 µM)
MIC (Staphylococcus aureus [7]): 1 µg/mL (≈ 1.76 µM)
MIC (Pseudomonas aeruginosa [8]): 8 µg/mL (≈ 14.1 µM)
MIC (Enterobacter cloacae [9]): 2 µg/mL (≈ 3.53 µM)
MIC (Klebsiella pneumoniae [10]): 0.015 µg/mL (≈ 0.0265 µM)

CCC(C)Nc1nc2cc[n+](CC3=C(C(=O)[O-])N4C(=O)[C@@H](NC(=O)/C(=N\OC)c5csc(N)n5)[C@H]4SC3)cc2s1 (stereo partly drawn)
MIC (Klebsiella pneumoniae [1]): 2 µg/mL (≈ 3.32 µM)
MIC (Streptococcus pyogenes): 0.008 µg/mL (≈ 0.0133 µM)
MIC (Streptococcus pneumoniae): 0.008 µg/mL (≈ 0.0133 µM)
MIC (Staphylococcus aureus [2]): 0.5 µg/mL (≈ 0.83 µM)
MIC (Escherichia coli [3]): 0.06 µg/mL (≈ 0.0995 µM)
MIC (Escherichia coli [4]): 0.015 µg/mL (≈ 0.0249 µM)
MIC (Enterococcus faecium): 128 µg/mL (≈ 212 µM)
MIC (Enterobacter cloacae [5]): 0.25 µg/mL (≈ 0.415 µM)
MIC (Serratia marcescens): 0.5 µg/mL (≈ 0.83 µM)
MIC (Pseudomonas aeruginosa [6]): 128 µg/mL (≈ 212 µM)
MIC (Staphylococcus aureus [7]): 0.5 µg/mL (≈ 0.83 µM)
MIC (Pseudomonas aeruginosa [8]): 16 µg/mL (≈ 26.5 µM)
MIC (Enterobacter cloacae [9]): 2 µg/mL (≈ 3.32 µM)
MIC (Klebsiella pneumoniae [10]): 0.008 µg/mL (≈ 0.0133 µM)

CO/N=C(\C(=O)N[C@@H]1C(=O)N2C(C(=O)[O-])=C(C[n+]3csc4c3CCCC4)CS[C@H]12)c1csc(N)n1
MIC (Klebsiella pneumoniae [1]): 2 µg/mL (≈ 3.74 µM)
MIC (Streptococcus pyogenes): 0.03 µg/mL (≈ 0.0561 µM)
MIC (Streptococcus pneumoniae): 0.03 µg/mL (≈ 0.0561 µM)
MIC (Staphylococcus aureus [2]): 2 µg/mL (≈ 3.74 µM)
MIC (Escherichia coli [3]): 0.06 µg/mL (≈ 0.112 µM)
MIC (Escherichia coli [4]): 0.03 µg/mL (≈ 0.0561 µM)
MIC (Enterococcus faecium): 16 µg/mL (≈ 29.9 µM)
MIC (Enterobacter cloacae [5]): 0.125 µg/mL (≈ 0.234 µM)
MIC (Serratia marcescens): 0.125 µg/mL (≈ 0.234 µM)
MIC (Pseudomonas aeruginosa [6]): 16 µg/mL (≈ 29.9 µM)
MIC (Staphylococcus aureus [7]): 1 µg/mL (≈ 1.87 µM)
MIC (Pseudomonas aeruginosa [8]): 4 µg/mL (≈ 7.48 µM)
MIC (Enterobacter cloacae [9]): 1 µg/mL (≈ 1.87 µM)
MIC (Klebsiella pneumoniae [10]): 0.03 µg/mL (≈ 0.0561 µM)

CO/N=C(\C(=O)N[C@@H]1C(=O)N2C(C(=O)[O-])=C(C[n+]3cccc4ccoc43)CS[C@H]12)c1csc(N)n1
MIC (Klebsiella pneumoniae [1]): 4 µg/mL (≈ 7.77 µM)
MIC (Streptococcus pyogenes): < 0.008 µg/mL
MIC (Streptococcus pneumoniae): < 0.008 µg/mL
MIC (Staphylococcus aureus [2]): 16 µg/mL (≈ 31.1 µM)
MIC (Escherichia coli [3]): < 0.008 µg/mL
MIC (Escherichia coli [4]): 0.06 µg/mL (≈ 0.117 µM)
MIC (Enterococcus faecium): > 128 µg/mL
MIC (Enterobacter cloacae [5]): 0.125 µg/mL (≈ 0.243 µM)
MIC (Serratia marcescens): 0.125 µg/mL (≈ 0.243 µM)
MIC (Pseudomonas aeruginosa [6]): 16 µg/mL (≈ 31.1 µM)
MIC (Staphylococcus aureus [7]): 2 µg/mL (≈ 3.89 µM)
MIC (Pseudomonas aeruginosa [8]): 4 µg/mL (≈ 7.77 µM)
MIC (Enterobacter cloacae [9]): 8 µg/mL (≈ 15.5 µM)
MIC (Klebsiella pneumoniae [10]): < 0.008 µg/mL

CO/N=C(\C(=O)N[C@@H]1C(=O)N2C(C(=O)[O-])=C(C[n+]3ccc4cnccc4c3)CS[C@H]12)c1csc(N)n1
MIC (Klebsiella pneumoniae [1]): 2 µg/mL (≈ 3.81 µM)
MIC (Streptococcus pyogenes): < 0.008 µg/mL
MIC (Streptococcus pneumoniae): < 0.008 µg/mL
MIC (Staphylococcus aureus [2]): 1 µg/mL (≈ 1.9 µM)
MIC (Escherichia coli [3]): < 0.008 µg/mL
MIC (Escherichia coli [4]): < 0.008 µg/mL
MIC (Enterococcus faecium): 32 µg/mL (≈ 60.9 µM)
MIC (Enterobacter cloacae [5]): 0.03 µg/mL (≈ 0.0571 µM)
MIC (Serratia marcescens): 0.03 µg/mL (≈ 0.0571 µM)
MIC (Pseudomonas aeruginosa [6]): 2 µg/mL (≈ 3.81 µM)
MIC (Staphylococcus aureus [7]): 1 µg/mL (≈ 1.9 µM)
MIC (Pseudomonas aeruginosa [8]): 2 µg/mL (≈ 3.81 µM)
MIC (Enterobacter cloacae [9]): 2 µg/mL (≈ 3.81 µM)
MIC (Klebsiella pneumoniae [10]): < 0.008 µg/mL

CO/N=C(\C(=O)N[C@@H]1C(=O)N2C(C(=O)[O-])=C(C[n+]3ccc4[nH]c(C)nc4c3)CS[C@H]12)c1csc(N)n1
MIC (Klebsiella pneumoniae [1]): 2 µg/mL (≈ 3.78 µM)
MIC (Streptococcus pyogenes): 0.008 µg/mL (≈ 0.0151 µM)
MIC (Streptococcus pneumoniae): 0.008 µg/mL (≈ 0.0151 µM)
MIC (Staphylococcus aureus [2]): 8 µg/mL (≈ 15.1 µM)
MIC (Escherichia coli [3]): 0.008 µg/mL (≈ 0.0151 µM)
MIC (Escherichia coli [4]): 0.008 µg/mL (≈ 0.0151 µM)
MIC (Enterococcus faecium): 128 µg/mL (≈ 242 µM)
MIC (Pseudomonas aeruginosa [6]): 8 µg/mL (≈ 15.1 µM)
MIC (Staphylococcus aureus [7]): 2 µg/mL (≈ 3.78 µM)
MIC (Pseudomonas aeruginosa [8]): 2 µg/mL (≈ 3.78 µM)
MIC (Enterobacter cloacae [9]): 8 µg/mL (≈ 15.1 µM)
MIC (Klebsiella pneumoniae [10]): 0.008 µg/mL (≈ 0.0151 µM)

CO/N=C(\C(=O)N[C@@H]1C(=O)N2C(C(=O)[O-])=C(C[n+]3ccc4scc(C(=O)O)c4c3)CS[C@H]12)c1csc(N)n1
MIC (Klebsiella pneumoniae [1]): 4 µg/mL (≈ 6.96 µM)
MIC (Streptococcus pyogenes): 0.03 µg/mL (≈ 0.0522 µM)
MIC (Streptococcus pneumoniae): 0.015 µg/mL (≈ 0.0261 µM)
MIC (Staphylococcus aureus [2]): 16 µg/mL (≈ 27.8 µM)
MIC (Escherichia coli [3]): 0.015 µg/mL (≈ 0.0261 µM)
MIC (Escherichia coli [4]): 0.06 µg/mL (≈ 0.104 µM)
MIC (Enterococcus faecium): > 128 µg/mL
MIC (Enterobacter cloacae [5]): 0.125 µg/mL (≈ 0.218 µM)
MIC (Serratia marcescens): 0.03 µg/mL (≈ 0.0522 µM)
MIC (Pseudomonas aeruginosa [6]): 16 µg/mL (≈ 27.8 µM)
MIC (Staphylococcus aureus [7]): 2 µg/mL (≈ 3.48 µM)
MIC (Pseudomonas aeruginosa [8]): 4 µg/mL (≈ 6.96 µM)
MIC (Enterobacter cloacae [9]): 32 µg/mL (≈ 55.7 µM)
MIC (Klebsiella pneumoniae [10]): 0.015 µg/mL (≈ 0.0261 µM)

CO/N=C(\C(=O)N[C@@H]1C(=O)N2C(C(=O)[O-])=C(C[n+]3cccc4c3CCCC4)CS[C@H]12)c1csc(N)n1 [CEFQUINOME]
MIC (Klebsiella pneumoniae [1]): 4 µg/mL (≈ 7.57 µM)
MIC (Streptococcus pyogenes): < 0.008 µg/mL
MIC (Streptococcus pneumoniae): 0.015 µg/mL (≈ 0.0284 µM)
MIC (Staphylococcus aureus [2]): 2 µg/mL (≈ 3.78 µM)
MIC (Escherichia coli [3]): 0.03 µg/mL (≈ 0.0568 µM)
MIC (Escherichia coli [4]): 0.03 µg/mL (≈ 0.0568 µM)
MIC (Enterococcus faecium): 128 µg/mL (≈ 242 µM)
MIC (Enterobacter cloacae [5]): 0.125 µg/mL (≈ 0.236 µM)
MIC (Serratia marcescens): 0.125 µg/mL (≈ 0.236 µM)
MIC (Pseudomonas aeruginosa [6]): 16 µg/mL (≈ 30.3 µM)
MIC (Staphylococcus aureus [7]): 1 µg/mL (≈ 1.89 µM)
MIC (Pseudomonas aeruginosa [8]): 4 µg/mL (≈ 7.57 µM)
MIC (Enterobacter cloacae [9]): 2 µg/mL (≈ 3.78 µM)
MIC (Klebsiella pneumoniae [10]): 0.03 µg/mL (≈ 0.0568 µM)

CO/N=C(\C(=O)N[C@@H]1C(=O)N2C(C(=O)[O-])=C(C[n+]3ccc4nc(C(C)(C)C)sc4c3)CS[C@H]12)c1csc(N)n1
MIC (Klebsiella pneumoniae [1]): 4 µg/mL (≈ 6.81 µM)
MIC (Streptococcus pyogenes): 0.015 µg/mL (≈ 0.0255 µM)
MIC (Streptococcus pneumoniae): 0.015 µg/mL (≈ 0.0255 µM)
MIC (Staphylococcus aureus [2]): 4 µg/mL (≈ 6.81 µM)
MIC (Enterococcus faecium): 128 µg/mL (≈ 218 µM)
MIC (Enterobacter cloacae [5]): 1 µg/mL (≈ 1.7 µM)
MIC (Serratia marcescens): 2 µg/mL (≈ 3.4 µM)
MIC (Pseudomonas aeruginosa [6]): 128 µg/mL (≈ 218 µM)
MIC (Staphylococcus aureus [7]): 1 µg/mL (≈ 1.7 µM)
MIC (Enterobacter cloacae [9]): 16 µg/mL (≈ 27.2 µM)

CO/N=C(\C(=O)N[C@@H]1C(=O)N2C(C(=O)[O-])=C(C[n+]3ccc4cncnc4c3)CS[C@H]12)c1csc(N)n1
MIC (Klebsiella pneumoniae [1]): 16 µg/mL (≈ 30.4 µM)
MIC (Streptococcus pyogenes): 0.06 µg/mL (≈ 0.114 µM)
MIC (Streptococcus pneumoniae): 0.03 µg/mL (≈ 0.057 µM)
MIC (Staphylococcus aureus [2]): 32 µg/mL (≈ 60.8 µM)
MIC (Escherichia coli [3]): 0.25 µg/mL (≈ 0.475 µM)
MIC (Escherichia coli [4]): 0.125 µg/mL (≈ 0.237 µM)
MIC (Enterococcus faecium): 128 µg/mL (≈ 243 µM)
MIC (Enterobacter cloacae [5]): 1 µg/mL (≈ 1.9 µM)
MIC (Serratia marcescens): 1 µg/mL (≈ 1.9 µM)
MIC (Pseudomonas aeruginosa [6]): 64 µg/mL (≈ 122 µM)
MIC (Staphylococcus aureus [7]): 4 µg/mL (≈ 7.6 µM)
MIC (Pseudomonas aeruginosa [8]): 32 µg/mL (≈ 60.8 µM)
MIC (Enterobacter cloacae [9]): 16 µg/mL (≈ 30.4 µM)
MIC (Klebsiella pneumoniae [10]): 0.125 µg/mL (≈ 0.237 µM)
